Key:
Format in all cases: in vivo, chicken chicks
[1] = system: Eimeria acervulina, Eimeria maxima and Eimeria tenella; test: Cage experiments coccidiosis/chicks, mixed experimental infection; conditions: for dropping scores / lesion score: grade 0 to 6
Method: (§1) The efficacy of the compounds according to the invention can be confirmed, for example, in cage experiments using the following experimental arrangement, in which the animals are treated with the respective individual components and with the mixtures of the individual components.
(§2) An active compound-containing feed is prepared in such a way that the required amount of active compound is thoroughly mixed with a nutritionally balanced animal feed, e.g. with the chick feed indicated below.
(§3) 8 to 12 day-old male chicken chicks raised under coccidea-free conditions (e.g. LSL Brinkschulte/Senden) receive the compounds according to the invention (test substances) from 3 days before (day -3) the infection (=a.i.) until 8 (9) days after the infection (=p.i.) with the feed in the concentration indicated in ppm. Three animals are kept in each cage. Per dose, one to a number of groups of this type are employed. Infection is carried out by means of a stomach tube directly into the crop using approximately 100,000 sporulated oocysts of Eimeria acervulina and with in each case approximately 30,000 oocysts of E. maxima and 40,000 sporulated oocysts of E. tenella. These are highly virulent strains. The exact infectious dose is adjusted such that if possible one of three experimentally infected untreated chicks dies due to infection. For the assessment of the efficacy, the following criteria are taken into consideration: weight increase from the start of the experiment to the end of the experiment, death rate due to infection, macroscopic assessment of the faeces with respect to diarrhoea and excretion of blood on days 5 and 7 p.i. (grade 0 to 6), macroscopic grade of the intestinal mucous membrane, in particular of the cecums (grade 0 to 6) and the oocyst excretion and also the proportion (in %) of the oocysts sporulating within 24 hours. The number of oocysts in the faeces was determined with the aid of the McMaster counting chamber (see Engelbrecht and coworkers “Parasitologische Arbeitsmethoden in Medizin und Veterinärmedizin, [Parasitological working methods in medicine and veterinary medicine] Akademie-Verlag, Berlin (1965)). The individual findings are related to the untreated noninfected control groups and an overall grade is calculated (cf. A. Haberkorn (1986), pp. 263 to 270 in Research in Avian Coccidiosis ed L. R. McDougald, L. P. Joyner, P. L. Long Proceedings of the Georgia Coccidiosis Conference Nov, 18-20, 1985 Athens/Ga. USA).
In the column “ppm”, the concentration of the active compound employed in the feed is indicated in ppm.
In the column “mortality”, the percentage of the animals which have died is indicated under % and the number of the animals which have died/animals employed in the experiment is indicated under n.
In the column “weight % of not inf. control”, the ratio of the weight of the treated animals to the weight of the noninfected control group is indicated.
(§4) In the columns “dropping scores”, “lesion score” and “oocyst control”, individual details of the action are given.
In the column “% efficacy”, the overall rating is assessed; 0% means no action, 100% means complete action.

Eimeria acervulina = test: Cage experiments coccidiosis/chicks, Eimeria acervulina part of the mixed infection; conditions: for Efficacy against Eimeria acervulina (grade): first symbol of cell
Method: as §1, §2, §3, §4

Eimeria maxima = test: Cage experiments coccidiosis/chicks, Eimeria maxima part of the mixed infection; conditions: for Efficacy against Eimeria maxima (grade): second symbol of cell
Method: as §1, §2, §3, §4

Eimeria tenella = test: Cage experiments coccidiosis/chicks, Eimeria tenella part of the mixed infection; conditions: for Efficacy against Eimeria tenella (grade): third symbol of cell
Method: as §1, §2, §3, §4

[2] = 5 ppm in feed, listed as Ex. 15
[3] = 10 ppm in feed, listed as Ex. 15

In the case of `Cc1oc(=O)oc1Cn1c(C(F)(F)F)nc2c(Cl)cc3c(c21)OC(F)(F)C(F)(F)O3` [Example 15], the “% efficacy tot.” value ([1]; 2.5 ppm in feed) is reported as 43%, the mortality % ([1]; 2.5 ppm in feed) is reported as 0% and the “mortality n (died/employed)” value ([1]; 2.5 ppm in feed) is reported as 0/3. The “oocyst in % of inf. control tot.” value ([1]; 2.5 ppm in feed) was 48%, the “weight % of not inf. control” value ([1]; 2.5 ppm in feed) was 80% and the dropping scores ([1]; 2.5 ppm in feed) was 1. For the same molecule, the lesion score ([1]; 2.5 ppm in feed) was 6, the “% efficacy tot.” value ([1]; 5 ppm in feed) was 75% and the mortality % ([1]; 5 ppm in feed) was 0%. For the same molecule, the “mortality n (died/employed)” value ([1]; 5 ppm in feed) was 0/3, the “oocyst in % of inf. control tot.” value ([1]; 5 ppm in feed) was 1% and the “weight % of not inf. control” value ([1]; 5 ppm in feed) was 85%. For the same molecule, the dropping scores ([1]; 5 ppm in feed) was 6, the lesion score ([1]; 5 ppm in feed) was 1 and the lesion score [1, 2] was 6. For the same molecule, the “% efficacy tot.” value [1, 2] was 23%, the “oocyst in % of inf. control tot.” value [1, 2] was 31% and the “weight % of not inf. control” value [1, 2] was 75%. For the same molecule, the “% efficacy tot.” value ([1]; 7.5 ppm in feed) was 60%, the mortality % ([1]; 7.5 ppm in feed) was 0% and the “mortality n (died/employed)” value ([1]; 7.5 ppm in feed) was 0/3. The “oocyst in % of inf. control tot.” value ([1]; 7.5 ppm in feed) was 13%, the “weight % of not inf. control” value ([1]; 7.5 ppm in feed) was >100% and the dropping scores ([1]; 7.5 ppm in feed) was 6. For the same molecule, the lesion score ([1]; 7.5 ppm in feed) was 2, the “% efficacy tot.” value ([1]; 10 ppm in feed) was 91% and the mortality % ([1]; 10 ppm in feed) was 0%. The “mortality n (died/employed)” value ([1]; 10 ppm in feed) was 0/3, the “oocyst in % of inf. control tot.” value ([1]; 10 ppm in feed) was 0% and the “weight % of not inf. control” value ([1]; 10 ppm in feed) was 82%. It also gave a dropping scores ([1]; 10 ppm in feed) of 0, a lesion score ([1]; 10 ppm in feed) of 0 and a lesion score [1, 3] of 1. The “% efficacy tot.” value [1, 3] was 89%, the “oocyst in % of inf. control tot.” value [1, 3] was 1% and the “weight % of not inf. control” value [1, 3] was 92%. The mortality % ([1]; 25 ppm in feed) was 100%, the “mortality n (died/employed)” value ([1]; 25 ppm in feed) was 3/3 and the dropping scores ([1]; 25 ppm in feed) was 0. The “oocyst in % of inf. control ac.” value (Eimeria acervulina; 2.5 ppm in feed) was 48%, the “oocyst in % of inf. control ac.” value (Eimeria acervulina; 5 ppm in feed) was 2% and the “oocyst in % of inf. control ac.” value (Eimeria acervulina; [2]) was 49%. The “oocyst in % of inf. control ac.” value (Eimeria acervulina; 7.5 ppm in feed) was 16%, the “oocyst in % of inf. control ac.” value (Eimeria acervulina; 10 ppm in feed) was 0% and the “oocyst in % of inf. control ac.” value (Eimeria acervulina; [3]) was 2%. For the same molecule, the “Efficacy against Eimeria acervulina (grade)” value (Eimeria acervulina; Dose 5 ppm) was 1, the “Efficacy against Eimeria acervulina (grade)” value (Eimeria acervulina; Dose 10 ppm) was 2 and the “Efficacy against Eimeria acervulina (grade)” value (Eimeria acervulina; Dose 25 ppm) was 2. The “oocyst in % of inf. control max.” value (Eimeria maxima; 2.5 ppm in feed) was 0%, the “oocyst in % of inf. control max.” value (Eimeria maxima; 5 ppm in feed) was 2% and the “oocyst in % of inf. control max.” value (Eimeria maxima; [2]) was 0%. The “oocyst in % of inf. control max.” value (Eimeria maxima; 7.5 ppm in feed) was 0%, the “oocyst in % of inf. control max.” value (Eimeria maxima; 10 ppm in feed) was 0% and the “Efficacy against Eimeria maxima (grade)” value (Eimeria maxima; Dose 5 ppm) was 0. The “Efficacy against Eimeria maxima (grade)” value (Eimeria maxima; Dose 10 ppm) was 1, the “Efficacy against Eimeria maxima (grade)” value (Eimeria maxima; Dose 25 ppm) was 2 and the “oocyst in % of inf. control ten.” value (Eimeria tenella; 2.5 ppm in feed) was 48%. The “oocyst in % of inf. control ten.” value (Eimeria tenella; 5 ppm in feed) was 0%, the “oocyst in % of inf. control ten.” value (Eimeria tenella; [2]) was 23% and the “oocyst in % of inf. control ten.” value (Eimeria tenella; 7.5 ppm in feed) was 12%. For the same molecule, the “oocyst in % of inf. control ten.” value (Eimeria tenella; 10 ppm in feed) was 0%, the “oocyst in % of inf. control ten.” value (Eimeria tenella; [3]) was 1% and the “Efficacy against Eimeria tenella (grade)” value (Eimeria tenella; Dose 5 ppm) was 1. The “Efficacy against Eimeria tenella (grade)” value (Eimeria tenella; Dose 10 ppm) was 2 and the “Efficacy against Eimeria tenella (grade)” value (Eimeria tenella; Dose 25 ppm) was 1.
